Test results: patent US20260008818A1, “CYCLIC PEPTIDE OR SALT THEREOF, AND USES THEREOF” (FUJIFILM Corporation, priority 2023, published 2026)
Bridge positions count the residues as written; N and C are the ends. Ends that are not written are not given here. COCH2 = acetyl group that carries the bridge

System: Recombinant Human FGFR1 alpha (IIIc) Fc Chimera Protein
Assay: Binding affinity of enzymatically synthesized cyclic peptide to FGFR by ELISA
Settings: luminescence signal at reaction concentration 10 nmol/L, SEQ ID NO: 39 standardized to 1, enzyme synthesis product
Procedure: The binding affinity of the cyclic peptide to FGFR was evaluated using an ELISA method.
The binding affinity of the enzymatically synthesized cyclic peptide to FGFR was measured by evaluating the amount of the cyclic peptide bound to FGFR by ELISA.
First, 5 ng of Recombinant Human FGFR1 alpha (IIIc) Fc Chimera Protein CF (R&D systems, 658-FR-050) was immobilized in each well of a 96-well plate, and blocked with Pierce Protein-Free (PBS) Blocking Buffer (Thermo, 37572), and a cyclic peptide diluted with Can Get Signal Immunoreaction Enhancer Solution I (TOYOBO, NKB-101) was then added and reacted at room temperature for 3 hours. After washing with 0.05% Tween 20-containing phosphate buffered saline (PBS), an anti-Myc antibody (Cell Signaling, 14038S) diluted with Can Get Signal Immunoreaction Enhancer Solution II (TOYOBO, NKB-101) was added and reacted at room temperature for 2 hours. After washing with 0.05% Tween 20-containing PBS, SuperSignal ELISA Femto Substrate (Thermo, 37075) was added, and the luminescence amount was measured. The dose-response relationship was calculated from using the difference between the luminescence amount in the well in which FGFR was immobilized and the luminescence amount in the well in which FGFR was not immobilized, and the concentration of the cyclic peptide at the time of reaction, and the binding affinity to FGFR was evaluated according to the following evaluation criteria. The evaluation result preferably satisfies the evaluation criteria A, B, or C.
In a case where a value of a luminescence signal emitted by the cyclic peptide set forth in SEQ ID NO: 39 at a reaction concentration of 10 nmol/L is standardized to 1, evaluation criteria of the luminescence signal value emitted by the cyclic peptide at a reaction concentration of 10 nmol/L is as follows. • A: 0.7 or more • B: 0.5 or more and less than 0.7 • C: 0.1 or more and less than 0.5 • D: less than 0.1.

Substance | Evaluation result of binding affinity to FGFR
111 (HCSYERLQFHGYEAPFRVK(COCH2)V; thioether 2-19 (inferred)) [compound 111] | C (0.1 or more and less than 0.5)
112 (HCSYERLQFHGWEAPFRVK(COCH2)V; thioether 2-19 (inferred)) [compound 112] | B (0.5 or more and less than 0.7)
113 (HCSYERLQFHGHEGPFRVK(COCH2)V; thioether 2-19 (inferred)) [compound 113] | C (0.1 or more and less than 0.5)
114 (HCSYERLQFHGHEVPFRVK(COCH2)V; thioether 2-19 (inferred)) [compound 114] | C (0.1 or more and less than 0.5)
115 (HCSYERLQFHGHEANFRVK(COCH2)V; thioether 2-19 (inferred)) [compound 115] | B (0.5 or more and less than 0.7)
116 (HCSYERLQFHGHEAQFRVK(COCH2)V; thioether 2-19 (inferred)) [compound 116] | C (0.1 or more and less than 0.5)
117 (HCSYERLQFHGHEADFRVK(COCH2)V; thioether 2-19 (inferred)) [compound 117] | B (0.5 or more and less than 0.7)
118 (HCSYERLQFHGHEAHFRVK(COCH2)V; thioether 2-19 (inferred)) [compound 118] | C (0.1 or more and less than 0.5)
119 (HCSYERLQFHGHEAPYRVK(COCH2)V; thioether 2-19 (inferred)) [compound 119] | C (0.1 or more and less than 0.5)
120 (HCSYGRLQFHGHEAPFRVK(COCH2)V; thioether 2-19 (inferred)) [compound 120] | B (0.5 or more and less than 0.7)
121 (HCSYPRLQFHGHEAPFRVK(COCH2)V; thioether 2-19 (inferred)) [compound 121] | A (0.7 or more)
122 (HCSYLRLQFHGHEAPFRVK(COCH2)V; thioether 2-19 (inferred)) [compound 122] | C (0.1 or more and less than 0.5)
123 (HCSYIRLQFHGHEAPFRVK(COCH2)V; thioether 2-19 (inferred)) [compound 123] | B (0.5 or more and less than 0.7)
124 (HCSYVRLQFHGHEAPFRVK(COCH2)V; thioether 2-19 (inferred)) [compound 124] | B (0.5 or more and less than 0.7)
125 (HCSYFRLQFHGHEAPFRVK(COCH2)V; thioether 2-19 (inferred)) [compound 125] | C (0.1 or more and less than 0.5)
126 (HCSYYRLQFHGHEAPFRVK(COCH2)V; thioether 2-19 (inferred)) [compound 126] | B (0.5 or more and less than 0.7)
127 (HCSYWRLQFHGHEAPFRVK(COCH2)V; thioether 2-19 (inferred)) [compound 127] | A (0.7 or more)
128 (HCSYNRLQFHGHEAPFRVK(COCH2)V; thioether 2-19 (inferred)) [compound 128] | B (0.5 or more and less than 0.7)
129 (HCSYQRLQFHGHEAPFRVK(COCH2)V; thioether 2-19 (inferred)) [compound 129] | A (0.7 or more)
130 (HCSYSRLQFHGHEAPFRVK(COCH2)V; thioether 2-19 (inferred)) [compound 130] | B (0.5 or more and less than 0.7)
131 (HCSYTRLQFHGHEAPFRVK(COCH2)V; thioether 2-19 (inferred)) [compound 131] | A (0.7 or more)

Substance | Evaluation result of binding affinity to FGFR
132 (HCSYDRLQFHGHEAPFRVK(COCH2)V; thioether 2-19 (inferred)) [compound 132] | B (0.5 or more and less than 0.7)
133 (HCSYRRLQFHGHEAPFRVK(COCH2)V; thioether 2-19 (inferred)) [compound 133] | B (0.5 or more and less than 0.7)
134 (HCSYHRLQFHGHEAPFRVK(COCH2)V; thioether 2-19 (inferred)) [compound 134] | A (0.7 or more)
135 (HCSYEPLQFHGHEAPFRVK(COCH2)V; thioether 2-19 (inferred)) [compound 135] | C (0.1 or more and less than 0.5)
136 (HCSYELLQFHGHEAPFRVK(COCH2)V; thioether 2-19 (inferred)) [compound 136] | C (0.1 or more and less than 0.5)
137 (HCSYEILQFHGHEAPFRVK(COCH2)V; thioether 2-19 (inferred)) [compound 137] | A (0.7 or more)
138 (HCSYEVLQFHGHEAPFRVK(COCH2)V; thioether 2-19 (inferred)) [compound 138] | A (0.7 or more)
139 (HCSYEQLQFHGHEAPFRVK(COCH2)V; thioether 2-19 (inferred)) [compound 139] | B (0.5 or more and less than 0.7)
140 (HCSYETLQFHGHEAPFRVK(COCH2)V; thioether 2-19 (inferred)) [compound 140] | C (0.1 or more and less than 0.5)
141 (HCSYEHLQFHGHEAPFRVK(COCH2)V; thioether 2-19 (inferred)) [compound 141] | C (0.1 or more and less than 0.5)
142 (HCSYERFQFHGHEAPFRVK(COCH2)V; thioether 2-19 (inferred)) [compound 142] | C (0.1 or more and less than 0.5)
143 (HCSYERYQFHGHEAPFRVK(COCH2)V; thioether 2-19 (inferred)) [compound 143] | B (0.5 or more and less than 0.7)
144 (HCSYERHQFHGHEAPFRVK(COCH2)V; thioether 2-19 (inferred)) [compound 144] | A (0.7 or more)
145 (HCSYERLGFHGHEAPFRVK(COCH2)V; thioether 2-19 (inferred)) [compound 145] | C (0.1 or more and less than 0.5)
146 (HCSYERLLFHGHEAPFRVK(COCH2)V; thioether 2-19 (inferred)) [compound 146] | A (0.7 or more)
147 (HCSYERLIFHGHEAPFRVK(COCH2)V; thioether 2-19 (inferred)) [compound 147] | A (0.7 or more)
148 (HCSYERLVFHGHEAPFRVK(COCH2)V; thioether 2-19 (inferred)) [compound 148] | A (0.7 or more)
149 (HCSYERLFFHGHEAPFRVK(COCH2)V; thioether 2-19 (inferred)) [compound 149] | A (0.7 or more)
150 (HCSYERLYFHGHEAPFRVK(COCH2)V; thioether 2-19 (inferred)) [compound 150] | A (0.7 or more)
151 (HCSYERLWFHGHEAPFRVK(COCH2)V; thioether 2-19 (inferred)) [compound 151] | A (0.7 or more)
152 (HCSYERLNFHGHEAPFRVK(COCH2)V; thioether 2-19 (inferred)) [compound 152] | A (0.7 or more)
